Experimental data published in US10233188B2, “CDK2/4/6 inhibitors” (priority 2016, dated 2019).
pKi: −log10 of the molar value.

Assays:
CDK4/Cyclin D3 = CDK4/Cyclin D3 (Homo sapiens (Human), UniProt P11802); test: biochemical
CDK2/Cyclin E1 = CDK2/Cyclin E1 (Homo sapiens (Human), UniProt P24941); test: biochemical; details: CDK2_Ki (nM), phosphorylated CDK2/Cyclin E1, 150 μM ATP, Morrison tight-binding fit
Description: The assay was initiated with the addition of ATP, following a fifteen minutes pre-incubation of enzyme and inhibitor at room temperature in the reaction mixture. The reaction was stopped after 45 minutes at room temperature by the addition of 50 μL of 80 mM EDTA, pH 7.5.

CDK6/Cyclin D1 = CDK6/Cyclin D1 (Homo sapiens (Human), UniProt Q00534); test: biochemical; details: CDK6_Ki (nM), non-phosphorylated CDK6/Cyclin D1, 2 mM ATP, Morrison fit
CDK6/Cyclin D1, sequence (Q00534 whole entry): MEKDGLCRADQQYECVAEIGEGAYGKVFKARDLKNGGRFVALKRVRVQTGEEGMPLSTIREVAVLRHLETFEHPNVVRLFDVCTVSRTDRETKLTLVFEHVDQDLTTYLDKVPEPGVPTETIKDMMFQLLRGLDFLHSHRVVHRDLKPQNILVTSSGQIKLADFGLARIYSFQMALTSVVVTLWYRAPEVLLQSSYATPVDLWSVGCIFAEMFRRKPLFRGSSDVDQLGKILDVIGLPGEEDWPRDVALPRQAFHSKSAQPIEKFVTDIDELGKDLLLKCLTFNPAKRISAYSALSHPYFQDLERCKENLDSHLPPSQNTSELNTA
CDK6/Cyclin D1, sequence (P24385 whole entry partner): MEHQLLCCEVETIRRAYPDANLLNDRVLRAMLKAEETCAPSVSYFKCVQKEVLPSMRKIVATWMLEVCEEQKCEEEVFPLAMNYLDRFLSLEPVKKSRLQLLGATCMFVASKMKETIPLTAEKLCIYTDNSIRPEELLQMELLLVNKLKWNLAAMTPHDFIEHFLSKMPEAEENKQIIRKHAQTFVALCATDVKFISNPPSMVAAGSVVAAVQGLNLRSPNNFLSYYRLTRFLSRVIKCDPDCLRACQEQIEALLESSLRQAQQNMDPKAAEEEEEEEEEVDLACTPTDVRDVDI

HCC1806 tumor xenograft = test: HCC1806 mouse tumor xenograft model; assay type: in vivo, NU/NU female mice; details: 30 mpk PO BID, 50 mpk PO BID and 75 mpk PO BID, 14 days
Description: Source: HCC1806 (# CRL 2335, ATCC, Manassas, Va.)
The HCC1806 tumor cell line was cultured in RPMI1640 media supplemented with 10% Fetal Bovine Serum (FBS). To establish a HCC1806 xenograft model, 5×10^6 cells per mouse were implanted subcutaneously into right hind flank NU/NU female mice. Cells were suspended in 50% Cultrex Basement Membrane Extract and 50% RPMI 1640 media serum free media prior to implantation.
Animals were randomized 7 days after cells implantation with each group consisting of 13 mice. Treatment began when tumors reached 100 mm^3 to 170 mm^3 in size on Day 7. Test compounds were prepared in 0.1% Tween, 0.5% Methyl cellulose in water and dosed PO at 30, 50, and 75 mg/kg as a suspension BID for 14 days. Mice receiving no drugs were given vehicle BID for 14 days. Tumor volumes were measured twice a week with an electric caliper, with tumor volumes calculated using Length×Width×Width/2 formula. Animal weights were recorded twice weekly.

Ovcar3 tumor xenograft = test: Ovcar3 mouse tumor xenograft model; assay type: in vivo, NSG mice; details: 10 mpk PO QD, 50 mpk PO QD and 50 mpk PO BID, 14 days
Description: Ovcar3 tumor cell line, purchased from ATCC (ATCC HTB-161™) was cultured in RPMI1640 (1×) media (Gibco™ cat#11875-093) with 10% FBS (Gibco™ cat #26140-079). To establish a Ovcar3 xenograft model, 5×10^6 cells per mouse was implanted subcutaneously into right hind flank NSG mice (#5557-NOD.cg-Prkdc Jackson Lab). Cells were suspended in 50% matrigel (Cultrex Basement Membrane Extract (BME), Trevigen's Basement Membrane Matrix) and 50% RPMI1640 (1×) media (Gibco™ cat#11875-093) serum free media prior to implantation.
Animals were randomized 39 days after cells implantation with each group consisted of 4 mice. Treatment began when tumors reached 100 mm^3-190 mm^3 in size. Test compounds were prepared in 40% Captisol and dosed PO at 10 and 50 mg/kg QD or at 50 mg/kg BID as a suspension for 14 days. Animals were taken down at designated time. Mice receiving no drugs were given vehicle QD or BID for 14 days. Tumor volumes were measured once prior to randomization with an electric caliper, with tumor volumes were calculated using Length×Width×Width/2 formulation. Tumor volumes were measured twice a week with an electric caliper, with tumor volumes calculated using Length×Width×Width/2 formula. Animal weights were recorded twice weekly.

CDK4/Cyclin D3, sequence (P11802 whole entry): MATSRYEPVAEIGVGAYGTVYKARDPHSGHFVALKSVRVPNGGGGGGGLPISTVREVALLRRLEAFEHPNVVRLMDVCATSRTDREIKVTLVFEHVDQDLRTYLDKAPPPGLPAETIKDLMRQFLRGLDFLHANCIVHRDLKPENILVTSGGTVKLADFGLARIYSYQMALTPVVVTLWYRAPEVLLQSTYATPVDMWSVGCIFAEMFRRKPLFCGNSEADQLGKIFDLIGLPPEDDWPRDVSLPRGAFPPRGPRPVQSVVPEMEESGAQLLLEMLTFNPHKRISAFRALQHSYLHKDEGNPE
CDK4/Cyclin D3, sequence (P30281 whole entry partner): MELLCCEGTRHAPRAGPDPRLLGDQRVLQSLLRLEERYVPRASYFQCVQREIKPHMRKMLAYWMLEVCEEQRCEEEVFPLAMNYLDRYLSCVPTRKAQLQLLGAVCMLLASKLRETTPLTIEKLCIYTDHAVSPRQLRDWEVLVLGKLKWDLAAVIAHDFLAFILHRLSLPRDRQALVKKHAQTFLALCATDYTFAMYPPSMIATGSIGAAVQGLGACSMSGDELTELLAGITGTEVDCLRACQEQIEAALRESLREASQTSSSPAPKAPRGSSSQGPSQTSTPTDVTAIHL

pKi (CDK4/Cyclin D3) | Ki (CDK2/Cyclin E1) [nM] | Ki (CDK6/Cyclin D1) [nM] | Compound | inhibition of tumor growth (mm^3) (HCC1806 tumor xenograft) | inhibition of tumor growth (mm^3) (Ovcar3 tumor xenograft)
9.47 | 0.16 | 0.18 | C[C@@]1(O)CCC[C@H]1n1c(=O)c(CC#N)cc2cnc(NC3CCN(S(C)(=O)=O)CC3)nc21 (single isomer, unassigned) [Example 120, (−)-(8-[(1R*,2R*)-2-hydroxy-2-methylcyclopentyl]-2-{[1-(methylsulfonyl)piperidin-4-yl]amino}-7-oxo-7,8-dihydropyrido[2,3-d]pyrimidin-6-yl)acetonitrile] | – | –
8.40 | 0.48 | 2.38 | C[C@@]1(O)CCC[C@H]1n1c(=O)c(F)cc2cnc(NC3CCN(S(C)(=O)=O)CC3)nc21 (single isomer, unassigned) [Example 6, (−)-6-fluoro-8-[(1R*,2R*)-2-hydroxy-2-methylcyclopentyl]-2-{[1-(methylsulfonyl)piperidin-4-yl]amino}pyrido[2,3-d]pyrimidin-7(8H)-one] | – | –
– | – | – | C[C@@]1(O)CCC[C@H]1n1c(=O)c(C(F)F)cc2cnc(NC3CCN(S(C)(=O)=O)CC3)nc21 [Example 10, 6-(difluoromethyl)-8-[(1R,2R)-2-hydroxy-2-methylcyclopentyl]-2-{[1-(methylsulfonyl)piperidin-4-yl]amino}pyrido[2,3-d]pyrimidin-7(8H)-one] | tumor growth inhibition | –
9.04 | 0.11 | 0.23 | C[C@@]1(O)CCC[C@H]1n1c(=O)c(CCO)cc2cnc(NC3CCN(S(C)(=O)=O)CC3)nc21 (single isomer, unassigned) [Example 122, (−)-6-(2-hydroxyethyl)-8-[(1R*,2R*)-2-hydroxy-2-methylcyclopentyl]-2-{[1-(methylsulfonyl)piperidin-4-yl]amino}pyrido[2,3-d]pyrimidin-7(8H)-one] | – | –
– | 9.91 | 184 | Cc1cc2cnc(NC3CCN(S(=O)(=O)C4CCS(=O)(=O)C4)CC3)nc2n([C@H]2CCC[C@]2(C)O)c1=O (single isomer, unassigned; isomer b) [Example 107, (+)-2-[(1-{[(3ξ)-1,1-dioxidotetrahydrothiophen-3-yl]sulfonyl}piperidin-4-yl)amino]-8-[(1R*,2R*)-2-hydroxy-2-methylcyclopentyl]-6-methylpyrido[2,3-d]pyrimidin-7(8H)-one-Isomer B] | – | –
– | 0.27 | 0.42 | C[C@H]1CCC[C@H]1n1c(=O)c(Cl)cc2cnc(NC3CCN(S(C)(=O)=O)CC3)nc21 [Example 38, 6-chloro-8-[(1R,2S)-2-methylcyclopentyl]-2-{[1-(methylsulfonyl)piperidin-4-yl]amino}pyrido[2,3-d]pyrimidin-7(8H)-one] | – | –
– | 12.6 | 9.5 | Cc1cc2cnc(NC3CCN(S(=O)(=O)C(F)(F)F)CC3)nc2n([C@H]2CCC[C@]2(C)O)c1=O (single isomer, unassigned) [Example 182, (+)-8-[(1R*,2R*)-2-hydroxy-2-methylcyclopentyl]-6-methyl-2-({1-[(trifluoromethyl)sulfonyl]piperidin-4-yl}amino)pyrido[2,3-d]pyrimidin-7(8H)-one] | – | –
– | 0.43 | 0.38 | C[C@@]1(O)CCC[C@H]1n1c(=O)c(CO)cc2cnc(NC3CCN(S(C)(=O)=O)CC3)nc21 (single isomer, unassigned) [Example 185, (−)-6-(hydroxymethyl)-8-[(1R*,2R*)-2-hydroxy-2-methylcyclopentyl]-2-{[1-(methylsulfonyl)piperidin-4-yl]amino}pyrido[2,3-d]pyrimidin-7(8H)-one] | – | –
– | 3.85 | 4.96 | C[C@]1(O)CCC[C@@H]1n1c(=O)ccc2cnc(NC3CCN(S(=O)(=O)C4CC4)CC3)nc21 (single isomer, unassigned) [Example 75, (+)-2-{[1-(cyclopropylsulfonyl)piperidin-4-yl]amino}-8-[(1R*,2R*)-2-hydroxy-2-methylcyclopentyl]pyrido[2,3-d]pyrimidin-7(8H)-one] | – | –
– | 0.48 | 0.36 | C[C@@H]1CCC[C@@H]1n1c(=O)c(CCO)cc2cnc(NC3CCN(S(C)(=O)=O)CC3)nc21 [Example 41, 6-(2-hydroxyethyl)-8-[(1S,2R)-2-methylcyclopentyl]-2-{[1-(methylsulfonyl)piperidin-4-yl]amino}pyrido[2,3-d]pyrimidin-7(8H)-one] | – | –
– | 0.14 | 0.19 | Cc1cc2cnc(NC3CCN(S(=O)(=O)C4CCS(=O)(=O)C4)CC3)nc2n([C@@H]2CCC[C@@]2(C)O)c1=O (single isomer, unassigned; isomer d) [Example 109, (−)-2-[(1-{[(3ξ)-1,1-dioxidotetrahydrothiophen-3-yl]sulfonyl}piperidin-4-yl)amino]-8-[(1R*,2R*)-2-hydroxy-2-methylcyclopentyl]-6-methylpyrido[2,3-d]pyrimidin-7(8H)-one-Isomer D] | – | –
– | 0.28 | 1.77 | CNS(=O)(=O)N1CCC(Nc2ncc3ccc(=O)n([C@@H]4CCC[C@@]4(C)O)c3n2)CC1 (single isomer, unassigned) [Example 56, (−)-4-({8-[(1R*,2R*)-2-hydroxy-2-methylcyclopentyl]-7-oxo-7,8-dihydropyrido[2,3-d]pyrimidin-2-yl}amino)-N-methylpiperidine-1-sulfonamide] | – | –
– | 3.35 | 22.7 | Cc1cc2cnc(NC3CCN(S(=O)(=O)NCC(C)(F)F)CC3)nc2n([C@H]2CCC[C@]2(C)O)c1=O (single isomer, unassigned) [Example 105, (+)-N-(2,2-difluoropropyl)-4-({8-[(1R*,2R*)-2-hydroxy-2-methylcyclopentyl]-6-methyl-7-oxo-7,8-dihydropyrido[2,3-d]pyrimidin-2-yl}amino)piperidine-1-sulfonamide] | – | –
– | – | – | C[C@@]1(O)CCC[C@H]1n1c(=O)ccc2cnc(NC3CCN(S(C)(=O)=O)CC3)nc21 [Example 2, 8-[(1R,2R)-2-hydroxy-2-methylcyclopentyl]-2-{[1-(methylsulfonyl)piperidin-4-yl]amino}pyrido[2,3-d]pyrimidin-7(8H)-one] | dose dependent inhibition of tumor growth | dose dependent inhibition of tumor growth

Compound | pKi (CDK4/Cyclin D3) | Ki (CDK2/Cyclin E1) [nM] | Ki (CDK6/Cyclin D1) [nM] | inhibition of tumor growth (mm^3) (HCC1806 tumor xenograft) | inhibition of tumor growth (mm^3) (Ovcar3 tumor xenograft)
CS(=O)(=O)N1CCC(Nc2ncc3ccc(=O)n([C@@H]4CCC[C@@H](O)C4)c3n2)CC1 [Example 3, 8-[(1R,3R)-3-hydroxycyclohexyl]-2-{[1-(methylsulfonyl)piperidin-4-yl]amino}pyrido[2,3-d]pyrimidin-7(8H)-one] | 8.46 | 0.26 | 1.17 | – | –
